Here are results for two molecules from US9988430B2, “Stable GLP-1 based GLP-1/glucagon receptor co-agonists” (Novo Nordisk A/S, priority 2014, dated 2018).

The target in test [1] is T1, human GLP-1 receptor (Homo sapiens, UniProt P43220).
T1 construct: expressed in transfected cells; host or cells: membranes of BHK cells, parent line BHKTS13, clone FCW467-12A
The experiment in a line: Assay (I)(a): GLP-1 receptor potency, CRE luciferase reporter gene assay in BHK cells. Type of test: cell-based. The settings on record: BHK cells expressing human GLP-1 receptor, read-out: EC50 GLP-1R. The gist of the method: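 BHK cells (clone FCW467-12A/KZ10-1), 5×10EE3/well, exposed 3 h at 37° C to compound at 1×10EE-13 to 1×10EE-6 M final in medium with 2% ovalbumin and 0.2% Pluronic F-68. Luciferase luminescence read; EC50 (pM) from four-parameter fit.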

For test [2], the target named is T2, human glucagon receptor (Homo sapiens, UniProt P47871).
T2 construct: expressed in transfected cells; host or cells: membranes of BHK cells, clone BHK hGCGR A3*25
The experiment in a line: Assay (I)(b): glucagon receptor potency, CRE luciferase reporter gene assay in BHK cells. The settings on record: BHK cells expressing human glucagon receptor, read-out: EC50 GlucagonR. Type of test: cell-based. The protocol:
Assay (I): GLP-1 and Glucagon Receptor Potency The purpose of this example was to test the activity or potency, of the GLP-1 derivatives of the invention, in vitro. The in vitro potency is the measure of human GLP-1 receptor (GLP-1R) or glucagon receptor (glucagonR) activation, respectively, in a whole cell assay. In vitro potency was determined by measuring the cellular response of human GLP-1 or glucagon receptor activation, respectively, in a reporter gene assay. The assay was performed in a BHK cell line that stably expresses either the human GLP-1 receptor or the human glucagon receptor and comprises the DNA for the cAMP response element (CRE) coupled to a promoter and the gene for firefly luciferase (CRE luciferase). […] When assay incubation was completed, the luciferase substrate (luciferin) was added and the enzyme converted luciferin to oxyluciferin and produces bioluminescence. The luminescence was measured as the readout for the assay. […] The cells were counted and adjusted to 5×10EE3 cells/50 μl (1×10EE5 cells/ml) in Assay Medium. […] Each assay plate was read in a Perkin Elmer TopCount NXT instrument. […] EC50 values were calculated by the software and reported in pM.

The target in test [3] is T2, human glucagon receptor. Put plainly: Assay (II)(b): glucagon receptor binding, [125I]-glucagon displacement, SPA on BHK membranes. The note with it: displacement of [125I]-glucagon, membranes with human glucagon receptor; read-out: IC50 GlucagonR. How it is done:
Assay (II): GLP-1 and Glucagon Receptor Binding The purpose of this assay is to test the in vitro receptor binding activity of the GLP-1 derivatives of the invention. (b) Glucagon Receptor Binding The glucagon receptor (glucagonR) binding activity is a measure of affinity of a derivative for the human glucagon receptor. The glucagon receptor binding of each derivative were determined with competitive binding, displacing [^125I]-glucagon bound to glucagon receptors expressed in cell membranes associated with wheat germ agglutinin (WGA) scintillation proximity assay (SPA) beads. Each derivative was added in a series of concentrations to isolated membranes comprising the human glucagon receptor and displacement of the labelled ligand was monitored. The receptor binding was reported as the concentration at which half of the labelled ligand is displaced from the receptor, the IC^50 value. The following chemicals were used in the assay: DMEM w Glutamax (Gibco 61965-026), Pen/strep (Invitrogen 15140-122), G418 (Invitrogen 10131-027), Versene (Gibco 15040), 1 M Hepes (Gibco 15630), PBS (Invitrogen 14190-094), fetal calf serum (Invitrogen 16140-071), MgCl2 (Merck 1.05832.1000), EDTA (Invitrogen 15575-038), CaCl2 (Sigma, C5080), Tween 20 (Amresco 0850C335), ovalbumin (Sigma A5503), SPA particles (wheat germ agglutinin (WGA) SPA beads, Perkin Elmer RPNQ0001), [125I]-glucagon (produced in-house), OptiPlate™-96 (Packard 6005290). HME buffer consisted of 25 mM HEPES, 2 mM MgCl2 and 1 mM EDTA, and pH was adjusted to 7.4. Assay buffer consisted of 50 mM HEPES supplemented with 5 mM MgCl2, 1 mM CaCl2, 0.02% Tween 20 and 0.1% Ovalbumin, and pH was adjusted to 7.4. The cells used in this assay (clone BHK hGCGR A3*25) were BHK cells stable transfected with an expression plasmid comprising the cDNA encoding the human glucagon receptor. The cells were grown at 5% CO2 in DMEM, 10% fetal calf serum, 1% Pen/Strep (Penicillin/Streptomycin) and 1.0 mg/ml of the selection marker G418. To make a membrane preparation the cells were grown to approximately 80% confluence. The cells were washed twice in phosphate-buffered saline and harvested. The cells were pelleted using a brief centrifugation and the cell pellet was kept on ice. Lyse the cells by adding approx. 5 ml HME buffer, mix by pipetting and snap freeze in liquid nitrogen. Thaw quickly and add HME buffer to 10 ml. The cell pellet was homogenised with an ULTRA-THURRAX dispersing instrument for 20-30 seconds. The homogenate was centrifuged at 20.000×G, 4° C. for 10 minutes. The pellet was resuspended (homogenised) in 1-2 ml HME buffer. The protein concentration was determined. The membranes were aliquoted and snapfrozen in liquid nitrogen and stored at minus 80° C. • 1. For the receptor binding assay 50 μl of the assay buffer was added to each well of an assay plate. • 2. Test compounds were serially diluted to give the following concentrations: 8×10EE-7 M, 8×10EE-8 M, 8×10EE-9 M, 8×10EE-10 M, 8×10EE-11 M, 8×10EE-12 M and 8×10EE-13 M. Twenty-five μl were added to appropriate wells in the assay plate. • 3. Cell membrane aliquots were thawed and diluted to their working concentration. Fifty μl were added to each well in the assay plate. • 4. WGA SPA beads were suspended in assay buffer at 20 mg/ml. The suspension was diluted to 10 mg/ml in assay buffer just prior to addition to the assay plate. Fifty μl were added to each well in the assay plate. • 5. The incubation was started by adding 25 μl of 480 pM solution of [125I]-glucagon to each well of the assay plate. A 25 μl aliquot was reserved for measuring total counts/well. • 6. The assay plate was incubated for 2 h at 25° C. • 7. The assay plate was centrifuged for 10 min at 1500 rpm. • 8. The assay plate was read in a Perkin Elmer TopCount NXT instrument. Calculations The data from the TopCount instrument were transferred to GraphPad Prism software. The software averaged the values for the replicates and performed a non-linear regression. […]
On the technique in general: In a radioligand displacement assay an active substance lowers the binding of a labelled ligand.

*1 amine or outer side, *2 acyl side, *3 side chain or, on linkers, in order; H or OH if unused. Where a SMILES comes first, the peptide text is derived from it. Side-chain parts run from the residue outwards. [ ]: non-standard residue; d: D form. The star is where a group is joined. C18 diacid = O=C(O)CCCCCCCCCCCCCCCCC(=O)*; γGlu = O=C(O)[C@H](CCC(=O)[*:2])N[*:1]; C14 diacid = O=C(O)CCCCCCCCCCCCC(=O)*; Desaminohistidyl = O=C(CCc1c[nH]cn1)*; AEEA = NCCOCCOCC(=O)O; Aib = CC(C)(N)C(=O)O

T2 sequence (P47871 26-477): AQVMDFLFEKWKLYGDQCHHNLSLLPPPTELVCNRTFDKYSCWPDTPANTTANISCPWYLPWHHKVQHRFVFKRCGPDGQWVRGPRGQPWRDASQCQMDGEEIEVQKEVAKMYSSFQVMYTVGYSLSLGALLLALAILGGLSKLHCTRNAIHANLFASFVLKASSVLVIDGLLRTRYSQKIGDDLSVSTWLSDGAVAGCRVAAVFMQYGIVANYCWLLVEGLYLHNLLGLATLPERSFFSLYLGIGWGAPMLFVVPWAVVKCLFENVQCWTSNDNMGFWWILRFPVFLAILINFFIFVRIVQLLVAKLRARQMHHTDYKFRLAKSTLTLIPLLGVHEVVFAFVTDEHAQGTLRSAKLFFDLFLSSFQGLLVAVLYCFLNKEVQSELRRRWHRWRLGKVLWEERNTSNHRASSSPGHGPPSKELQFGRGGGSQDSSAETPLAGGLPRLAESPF
T1 sequence (P43220 24-463): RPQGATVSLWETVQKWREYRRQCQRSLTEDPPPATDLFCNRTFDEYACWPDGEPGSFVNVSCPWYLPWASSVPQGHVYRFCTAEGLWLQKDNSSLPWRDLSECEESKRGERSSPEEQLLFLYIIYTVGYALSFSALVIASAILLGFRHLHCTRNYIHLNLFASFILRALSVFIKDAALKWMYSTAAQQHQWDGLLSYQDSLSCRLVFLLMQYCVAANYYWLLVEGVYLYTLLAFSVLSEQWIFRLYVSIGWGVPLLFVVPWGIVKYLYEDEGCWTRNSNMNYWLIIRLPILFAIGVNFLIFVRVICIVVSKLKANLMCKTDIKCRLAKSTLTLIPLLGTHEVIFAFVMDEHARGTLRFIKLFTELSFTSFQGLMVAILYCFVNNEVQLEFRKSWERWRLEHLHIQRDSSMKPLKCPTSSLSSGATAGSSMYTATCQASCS

What is called EC50 is the concentration that produces a half-maximal response. For the molecule `CC[C@H](C)[C@H](NC(=O)[C@H](Cc1ccccc1)NC(=O)[C@H](CCCCNC(=O)COCCOCCNC(=O)COCCOCCNC(=O)CC[C@H](NC(=O)CC[C@H](NC(=O)CC[C@H](NC(=O)CCCCCCCCCCCCCCCCC(=O)O)C(=O)O)C(=O)O)C(=O)O)NC(=O)[C@H](CCCNC(=N)N)NC(=O)[C@H](C)NC(=O)[C@H](C)NC(=O)[C@H](CCC(N)=O)NC(=O)[C@H](CCC(=O)O)NC(=O)[C@H](CCC(=O)O)NC(=O)[C@H](CC(C)C)NC(=O)[C@H](Cc1ccc(O)cc1)NC(=O)[C@H](CCCNC(=N)N)NC(=O)[C@H](CO)NC(=O)[C@@H](NC(=O)[C@H](CC(=O)O)NC(=O)[C@H](CO)NC(=O)[C@@H](NC(=O)[C@H](Cc1ccccc1)NC(=O)[C@@H](NC(=O)CNC(=O)[C@H](Cc1c[nH]cn1)NC(=O)C(C)(C)NC(=O)CCc1c[nH]cn1)[C@@H](C)O)[C@@H](C)O)C(C)C)C(=O)N[C@@H](C)C(=O)N[C@@H](Cc1c[nH]c2ccccc12)C(=O)N[C@@H](CC(C)C)C(=O)N[C@@H](CC(C)C)C(=O)N[C@@H](CCCNC(=N)N)C(=O)O` [Example 19, N^ε27-[2-[2-[2-[[2-[2-[2-[[(4S)-4-carboxy-4-[[(4S)-4-carboxy-4-[[(4S)-4-carboxy-4-(17-carboxyheptadecanoylamino)butanoyl]amino]butanoyl]amino]butanoyl]amino]ethoxy]ethoxy]acetyl]amino]ethoxy]ethoxy]acetyl]-[Imp7,Aib8,His9,Arg18,Glu22,Arg26,Lys27,Leu33,Arg34]-GLP-1-(7-34)-peptide] (Desaminohistidyl-[Aib]HGTFTSDVSRYLEEQAARK([AEEA-AEEA-γGlu-γGlu-γGlu-C18 diacid])FIAWLLR-OH), the EC50 in test [1] worked out at 0.007 nM; in test [2] it was 0.143 nM.
The term IC50 denotes the concentration at which inhibition is half-maximal. With `CC[C@H](C)[C@H](NC(=O)[C@H](Cc1ccccc1)NC(=O)[C@H](CCC(=O)O)NC(=O)[C@H](CCCNC(=N)N)NC(=O)[C@H](C)NC(=O)[C@H](C)NC(=O)[C@H](CCC(N)=O)NC(=O)[C@H](CCC(=O)O)NC(=O)[C@H](CCC(=O)O)NC(=O)[C@H](CC(C)C)NC(=O)[C@H](Cc1ccc(O)cc1)NC(=O)[C@H](CCCCN)NC(=O)[C@H](CO)NC(=O)[C@@H](NC(=O)[C@H](CC(=O)O)NC(=O)[C@H](CO)NC(=O)[C@@H](NC(=O)[C@H](Cc1ccccc1)NC(=O)[C@@H](NC(=O)CNC(=O)[C@H](Cc1c[nH]cn1)NC(=O)C(C)(C)NC(=O)CCc1c[nH]cn1)[C@@H](C)O)[C@@H](C)O)C(C)C)C(=O)N[C@@H](C)C(=O)N[C@@H](Cc1c[nH]c2ccccc12)C(=O)N[C@@H](CC(C)C)C(=O)N[C@@H](CC(C)C)C(=O)N[C@@H](CCCCNC(=O)COCCOCCNC(=O)COCCOCCNC(=O)CC[C@H](NC(=O)CC[C@H](NC(=O)CCCCCCCCCCCCC(=O)O)C(=O)O)C(=O)O)C(=O)N[C@H](C(N)=O)[C@@H](C)O` [Example 38, N^ε34-[2-[2-[2-[[2-[2-[2-[[(4S)-4-carboxy-4-[[(4S)-4-carboxy-4-(13-carboxytridecanoylamino)butanoyl]amino]butanoyl]amino]ethoxy]ethoxy]acetyl]amino]ethoxy]ethoxy]acetyl]-[Imp7,Aib8,His9,Lys18,Glu22,Arg26,Leu33,Thr35]-GLP-1-(7-35)-peptide amide] (Desaminohistidyl-[Aib]HGTFTSDVSKYLEEQAAREFIAWLLK([AEEA-AEEA-γGlu-γGlu-C14 diacid])T-NH2), the concentration giving a half-maximal response (EC50) in test [1] came to 0.012 nM. Moreover, the 50% inhibitory concentration (IC50) in test [3] is 3.7 nM.
